From US8481051B2, “Cytotoxic T-cell epitope peptides that specifically attack epstein-barr virus-infected cells and uses thereof” (Medical and Biological Laboratories Co., Ltd., priority 2005, dated 2013) come the findings set out here.

Format in all cases: cell-based, human
The subject of assay [1] is EBNA1-specific CTL clone B5. Put plainly: IFNγ ELISPOT assay, CTL clone B5 with peptide-pulsed autologous CD40-B cells. As to conditions: for recognition of 20-mer overlapping peptide by clone B5: autologous CD40-B cells pulsed with 10 μg/mL peptide, FIG. 9. On the procedure: (§1) ELISPOT assays were performed by a known method (Kuzushima K., et al., Blood, 101:1460-1468 (2003)). Specifically, CD8 T cells were co-cultured with various stimulators in wells of Multiscreen-HA plates (Millipore, Billerica, Mass.) coated with anti-human interferon-γ (IFNγ) monoclonal antibody (Pierce Biotechnology, Philadelphia, Pa.). As stimulators, (A) autologous EBNA1 mRNA-transduced CD40-B cells or non-transduced CD40-B cells and (B) autologous or allogenic LCLs (1×10^5 cells/well) were seeded into each well. For peptide titration assays and the overlapping peptide assay described below, serial concentrations of synthetic peptides were added to autologous CD40-B cells for one hour at room temperature.
(§2) After reacting with anti-human IFNγ rabbit polyclonal antibody (Pierce Biotechnology), followed by addition of peroxidase-labeled anti-rabbit immunoglobulin antibody (Genzyme, Cambridge, Mass.) and substrate, the plates were washed and dried. IFNγ spots were enumerated under a stereoscopic microscope.

Assay [2] relates to LMP1-specific CTL clone H7. Briefly: IFNγ ELISPOT assay, CTL clone H7 with peptide-pulsed A0206-293T cells. The conditions noted are these: for recognition by H7 in ELISPOT assay: A0206-293T cells pulsed with various concentrations of synthetic peptide, FIG. 2D. Here is the method:
ELISPOT assays were performed by known methods (Kuzushima K., et al., Blood, 94:3094-3100 (1999); Kondo E., et al., J. Immunol., 169:2164-2171 (2002); and Kuzushima K., et al., Blood, 98:1872-1881 (2001)). Specifically, CD8 T cells were co-cultured with various stimulators in wells of Multiscreen-HA plates (MAHA S4510; Millipore, Billerica, Mass., USA) coated with anti-human interferon-γ (IFNγ) monoclonal antibody (Pierce Biotechnology, Philadelphia, Pa., USA).
As stimulators, HLA-A*0206-positive or -negative LCLs (1×10^5 cells/well) or HLA-A*0206-expressing HEK-293T (A0206-293T) cells (5×10^4 cells/well) transfected with plasmids using Lipofectamin 2000 (Invitrogen) were seeded into each well 48 hour before T cell addition. For peptide titration assays, several concentrations of synthetic peptides (Greiner, Frickenhausen, Germany) were pulsed to A0206-293T cells for one hour at room temperature. After probing with […] (Pierce Biotechnology) and reacting with peroxidase-labeled anti-rabbit IgG antibody (Genzyme, Cambridge, Mass., USA) for spot visualization, the plates were washed and dried. IFNγ spots were enumerated using a stereoscopic microscope.

The test system of a further assay is SNK-6 cells. Briefly: CTL assay (51Cr release) against SNK-6. As to conditions: SNK-6 pulsed with 100 nM epitope peptide; four-hour CTL assay; FIG. 5A. On the procedure:
Next, cytotoxic activities of H7 on LCLs were explored. CTL assays were conducted according to the following procedures. Target cells were labeled with 50 μCi chromium (^51Cr) for one and a half hours at 37° C., washed, and mixed with CTLs at the indicated effector:target ratios in 96-well plates. After incubation for 4 or 16 hours at 37° C., the radioactivity in the supernatants was counted with a γ-counter. The percentage of specific ^51Cr release was calculated as follows: 100×{(experimental release)−(spontaneous release)}/{(maximum release)−([…])}.

For assay [3], the system named is EBNA1-specific CTL clone C6. Put plainly: IFNγ ELISPOT assay, CTL clone C6 with peptide-pulsed autologous CD40-B cells. As to conditions: autologous CD40-B cells pulsed with 10 μg/mL peptide; FIG. 9. On the procedure: as §1, §2

Consider VYGGSKTSL [SEQ ID NO: 22], for which the “recognition by clone B5 in peptide titration” value in assay [1] (autologous CD40-B cells, serial dilutions of peptide, FIG. 10C) is listed as “not recognized even with much higher concentrations”. Consider “YLLEMLWRL [SEQ ID NO: 25, reference compound]”, for which, in assay [2] (data not shown), the “IFNγ production by H7 with the peptide” value was “did not produce IFNγ”. As for “I I I L I I F I (IIILIIF) [SEQ ID NO: 18, LMP1 amino acid residues 64-71]”, the “recognition by H7 in ELISPOT assay” value in assay [2] was “only the 9-mer peptide was recognized by H7”. Regarding “I I I I L I I F I (IIIILIIFI) [SEQ ID NO: 1]”, the “recognition by H7 in ELISPOT assay” value in assay [2] is reported as “recognized by H7”. The “lysis of epitope peptide-pulsed SNK-6 cells by H7” value in the assay on SNK-6 cells is given as “efficiently lysed”. As for “#38: 20-mer overlapping EBNA1 peptide (500-519)”, the “recognition of 20-mer overlapping peptide by clone B5” value in assay [1] was “recognized”.

“#24: 20-mer overlapping EBNA1 peptide (402-421)”: in assay [3], the “recognition of 20-mer overlapping peptide by clone C6” value is “recognized”. For “#39: 20-mer overlapping EBNA1 peptide (507-526)”, the “recognition of 20-mer overlapping peptide by clone B5” value in assay [1] was “recognized”.
